Read-outs that look alike come from different tables or passages of the source.
Experiments:
Bcl-2 = Bcl-2 (Homo sapiens, UniProt P10415); experiment: Bcl-2 binding affinity analysis (fluorescence polarization binding assay)
Procedure, shortened: (§1)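 Sensitive, quantitative cell-free test: compound incubated with protein, then polarization of emitted fluorescence recorded to gauge affinity.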

[1] = tested on: RL Human Follicular Lymphoma Cell Line; experiment: Alamar blue cytotoxicity assay in RL cells; format: cell-based; conditions: Homo sapiens, 72 h incubation, read-out: Bcl RL Alamar Blue IC50
Description: (§2) When RL-cells are exposed to isoxazolidine compounds of the present invention, the inhibitors show a dose-dependent cell-killing in the Alamar blue cytoxicity assay with IC50 values of from about 100 μM to about 1 μM (See Examples). When Panc1 cells are exposed to the isoxazolidine compounds of the present invention in combination with camptothecin, the inhibitors show a synergistic dose-dependent cell killing in the propidium iodide exclusion cell survival assay with IC50 values of from about 100 μM to about 1 μM (See Examples).
• 1) Using 96 well plates, compounds were serially diluted in DMSO from 9 mM to 4 uM • 2) Assay plates were prepared by diluting samples 310 fold into 150 ul of medium containing 30,000 cells/well resulting in a final DMSO concentration of 0.3% and a concentration range from 29 uM to 0.013 uM for each compound. • 3) Plates were incubated at 37 C and 5% CO2 for 72 h • 4) After 72 h, Alamar blue reagent was added to each well and plates read according to manufacturer's instructions
In vitro cytotoxicity data for RL cells is presented below for various compounds of the invention.

[2] = tested on: Human Pancreatic Cancer Cell Line Panc1; experiment: Cell death assay (propidium iodide/Hoechst) in Panc1 cells with or without camptothecin; format: cell-based; conditions: 72 hours, % cell death by propidium iodide/Hoechst
Description: as §2
• 1) Compounds were serially diluted in DMSO from a 9 mM stock to a final concentration of 0.004 mM in a 96 well plate. • 2) Assay plates were prepared by diluting compounds 310 fold into 150 ul of medium containing 10,000 cells/well, with or without 3 uM Camptothecin, resulting in a final DMSO concentration of 0.3% and a compound concentration range from 29 uM to […] for each compound. • 3) Assay plates were incubated at 37 C, 5% CO2 for 72 hours. • 4) After 72 hours, propidium iodide and Hoechst dye were added to each well according to manufacturer's instruction. • 5) Plates were imaged on a fluorescence microscope at wavelengths Ex560/Em650 (Propidium iodide) and Ex360/Em465 (Hoechst) • 6) MetaMorph imaging software was used to determine % cell death by dividing the number of propidium iodide stained cells (dead cells) by the number of Hoechst stained cells (all cells), multipled by 100, in each field.
Panc1 invitro cellular data is presented below for various compounds of the invention.

Bcl-xL = Bcl-xL (Homo sapiens, UniProt Q07817); experiment: Bcl-xL binding affinity analysis (fluorescence polarization binding assay); design: scale not given here
Bcl-xL, sequence (Q07817 whole entry): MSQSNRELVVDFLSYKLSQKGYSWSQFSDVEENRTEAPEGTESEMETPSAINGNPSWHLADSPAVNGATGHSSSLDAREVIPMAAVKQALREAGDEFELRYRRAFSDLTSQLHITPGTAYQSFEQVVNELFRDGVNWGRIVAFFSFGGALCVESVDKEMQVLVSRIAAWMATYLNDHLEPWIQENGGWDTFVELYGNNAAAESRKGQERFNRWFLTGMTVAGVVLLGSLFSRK
Procedure, shortened: as §1

[3] = Homo sapiens, PANC-1, without camptothecin, read-out: Panc1 − Cpt IC50
[4] = with 3 uM Camptothecin, read-out: Panc1 + Cpt IC50

Bcl-2, sequence (P10415 whole entry): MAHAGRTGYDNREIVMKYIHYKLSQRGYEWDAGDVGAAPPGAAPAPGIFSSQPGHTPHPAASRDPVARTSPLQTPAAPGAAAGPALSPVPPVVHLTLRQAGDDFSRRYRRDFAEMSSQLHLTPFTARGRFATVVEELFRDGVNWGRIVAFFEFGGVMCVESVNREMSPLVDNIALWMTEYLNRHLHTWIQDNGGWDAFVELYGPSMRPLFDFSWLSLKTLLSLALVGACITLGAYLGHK

Structure (SMILES) | Ki (Bcl-2) [nM] | IC50 [1] [nM] | IC50 [2, 3] [nM] | IC50 [2, 4] [nM] | Bcl-XL binding affinity Ki (Bcl-xL)
CC(O)C1C(CO)ON(Cc2cccc(CN(C)C(CC3CCCCC3)CN(C)C)c2)C1C(=O)NC1CC2CC(C1C)C2(C)C (stereo not drawn) [Compound 442] | < 800 | 2000 to 5000 | > 2500 | > 2500 | ♯
CC(O)C1C(CO)ON(Cc2cccc(CN(CCN(C)C)Cc3ccccc3Br)c2)C1C(=O)NC1CC2CC(C1C)C2(C)C (stereo not drawn) [Compound 348] | < 800 | > 5000 | > 2500 | > 2500 | ♯
Cc1cccc(C)c1CN(Cc1cccc(CN2OC(CO)C(C(C)O)C2C(=O)NC2CC3CC(C2C)C3(C)C)c1)C(CC(C)C)CN(C)C (stereo not drawn) [Compound 325] | < 800 | < 2000 | < 1300 | < 1300 | ♯
CC(O)C1C(CO)ON(Cc2cccc(CN(CCN3CCCC3)CC3CCCCC3)c2)C1C(=O)NC1CC2CC(C1C)C2(C)C (stereo not drawn) [Compound 425] | < 800 | < 2000 | > 2500 | > 2500 | ♯
COc1c(CN2O[C@@H](CO)[C@@H]([C@H](C)O)[C@H]2C(=O)N[C@H]2C[C@H]3C[C@@H]([C@@H]2C)C3(C)C)cccc1-c1cccc(C(=O)N[C@H](CC(C)C)CN2CCCCCC2)c1 [Compound 483] | < 800 | 2000 to 5000 | > 2500 | 1800 to 2500 | ♯
CC(O)C1C(CO)ON(Cc2cccc(CN(CCN(C)C)CC3CCCC3)c2)C1C(=O)NC1CC2CC(C1C)C2(C)C (stereo not drawn) [Compound 363] | < 800 | > 5000 | > 2500 | > 2500 | ♯
CC(C)CN(CCN(C)C)Cc1cccc(CN2OC(CO)C(C(C)O)C2C(=O)NC2CC3CC(C2C)C3(C)C)c1 (stereo not drawn) [Compound 379] | < 800 | > 5000 | – | – | ♯
CC(O)C1C(CO)ON(Cc2cccc(CN(Cc3ccccc3)C3CCN(C)C3)c2)C1C(=O)NC1CC2CC(C1C)C2(C)C (stereo not drawn) [Compound 429] | < 800 | 2000 to 5000 | – | – | ♯
CC(C)C[C@H](CN(C)C)NC(=O)Nc1cccc(CN2O[C@@H](CO)[C@@H]([C@H](C)O)[C@H]2C(=O)NC2C[C@H]3C[C@@H]([C@@H]2C)C3(C)C)c1 (stereo partly drawn) [Compound 562] | < 800 | > 5000 | – | – | ♯
C[C@@H]1[C@@H](NC(=O)[C@@H]2[C@H]([C@H](C)O)[C@H](CO)ON2Cc2cccc(N(CCCN(C)C)Cc3ccccc3C(F)(F)F)c2)C[C@H]2C[C@@H]1C2(C)C [Compound 585] | < 800 | 2000 to 5000 | – | – | ♯
COc1c(CN2O[C@@H](CO)[C@@H]([C@H](C)O)[C@H]2C(=O)N[C@H]2C[C@H]3C[C@@H]([C@@H]2C)C3(C)C)cccc1-c1cccc(C(=O)N[C@@H](CCc2ccccc2)CN(C)C)c1 [Compound 481] | < 800 | 2000 to 5000 | – | – | ♯
CC(=O)Oc1cccc(CN(CCN(C)C)Cc2cccc(CN3OC(CO)C(C(C)O)C3C(=O)NC3CC4CC(C3C)C4(C)C)c2)c1 (stereo not drawn) [Compound 405] | < 800 | 2000 to 5000 | – | – | ♯
CC(O)C1C(CO)ON(Cc2cccc(CN3CCN(C)CC3c3ccccc3)c2)C1C(=O)NC1CC2CC(C1C)C2(C)C (stereo not drawn) [Compound 473] | < 800 | > 5000 | – | – | ♯
CC(O)C1C(CO)ON(Cc2cccc(CN3CCN(C)CC3)c2)C1C(=O)NC1CC2CC(C1C)C2(C)C (stereo not drawn) [Compound 447] | < 800 | > 5000 | – | – | ♯
COc1c(CN2O[C@@H](CO)[C@@H]([C@H](C)O)[C@H]2C(=O)N[C@H]2C[C@H]3C[C@@H]([C@@H]2C)C3(C)C)cccc1-c1cccc(C(=O)N[C@H](CN(C)C)c2ccccc2)c1 [Compound 491] | < 800 | 2000 to 5000 | – | – | ♯

Source: US7851637B2, “Compounds and methods for inhibiting the interaction of BCL proteins with binding partners” (Infinity Pharmaceuticals, Inc., priority 2004, dated 2010)
